Results reported in patent US4885170A, “Antibiotic A80509” (Eli Lilly and Company, priority 1988, dated 1989).
Positions of bridges follow the written chain, without caps; N, C: chain ends. Non-standard residues stand in square brackets, D forms with d. Residues, ends and D or L forms follow the SMILES beside them. *: point of attachment. Ileψ(thiazoline)Cys = CC[C@H](C)[C@H](N)C1=N[C@H](C(=O)*)CS1; dOrn = NCCC[C@@H](N)C(=O)O

Tested on: Culture A80509
Test: resistance of culture A80509 to antibiotics, sensitivity discs on agar

## CC[C@H](C)[C@H](N)C1=N[C@H](C(=O)N[C@@H](CC(C)C)C(=O)N[C@H](CCC(=O)O)C(=O)N[C@H](C(=O)N[C@H]2CCCCNC(=O)[C@H](CC(N)=O)NC(=O)[C@@H](CC(=O)O)NC(=O)[C@H](Cc3cnc[nH]3)NC(=O)[C@@H](Cc3ccccc3)NC(=O)[C@H]([C@@H](C)CC)NC(=O)[C@@H](CCCN)NC2=O)[C@@H](C)CC)CS1 [bacitracin] ({Ileψ(thiazoline)Cys}-L[dE]IK[dOrn]I[dF]H[dD]N; lactam 4-C)
Disc 10 units
  resistance/sensitivity of culture A80509: sensitive

## CC(=O)OCC1=C(C(=O)O)N2C(=O)[C@@H](NC(=O)Cc3cccs3)[C@H]2SC1 [cephalothin]
Disc 30 μg
  resistance/sensitivity of culture A80509: resistant

## CCC[C@@H]1C[C@@H](C(=O)N[C@@H]([C@H]2O[C@H](SC)[C@H](O)[C@@H](O)[C@H]2O)[C@@H](C)O)N(C)C1 [lincomycin]
Disc 2 μg
  resistance/sensitivity of culture A80509: resistant

## CO[C@H]1C[C@H](O[C@H]2[C@H](C)[C@@H](O[C@@H]3O[C@H](C)C[C@H](N(C)C)[C@H]3O)[C@@H](C)C[C@@]3(CO3)C(=O)[C@H](C)[C@@H](O)[C@@H](C)[C@@H](C)OC(=O)[C@@H]2C)O[C@@H](C)[C@@H]1O [oleandomycin]
Disc 15 μg
  resistance/sensitivity of culture A80509: resistant

## CC1(C)S[C@@H]2[C@H](NC(=O)Cc3ccccc3)C(=O)N2[C@H]1C(=O)O [penicillin G]
Disc 10 units
  resistance/sensitivity of culture A80509: resistant

## CO[C@H]1/C=C/O[C@@]2(C)Oc3c(C)c(O)c4c(O)c(c(/C=N/N5CCN(C)CC5)c(O)c4c3C2=O)NC(=O)/C(C)=C\C=C\[C@H](C)[C@H](O)[C@@H](C)[C@@H](O)[C@@H](C)[C@H](OC(C)=O)[C@@H]1C [rifampin]
Disc 5 μg
  resistance/sensitivity of culture A80509: sensitive

## [H]/N=C(/N)N[C@H]1[C@H](O)[C@@H](O)[C@H](O[C@@H]2O[C@@H](C)[C@](O)(C=O)[C@H]2O[C@@H]2O[C@@H](CO)[C@H](O)[C@@H](O)[C@@H]2NC)[C@@H](N/C(N)=N\[H])[C@@H]1O [streptomycin]
Disc 10 μg
  resistance/sensitivity of culture A80509: sensitive

## CN(C)C1C(=O)C(C(N)=O)=C(O)C2(O)C(=O)C3=C(O)c4c(O)cccc4C(C)(O)C3CC12 (stereo not drawn) [tetracycline]
Disc 30 μg
  resistance/sensitivity of culture A80509: sensitive

## NC[C@H]1O[C@H](O[C@H]2[C@H](O)[C@@H](O[C@H]3O[C@H](CO)[C@@H](O)[C@H](N)[C@H]3O)[C@H](N)C[C@@H]2N)[C@H](N)C[C@@H]1O [tobramycin]
Disc 10 μg
  resistance/sensitivity of culture A80509: sensitive

## CN[C@H](CC(C)C)C(=O)N[C@H]1C(=O)N[C@@H](CC(N)=O)C(=O)N[C@H]2C(=O)N[C@H]3C(=O)N[C@H](C(=O)N[C@H](C(=O)O)c4cc(O)cc(O)c4-c4cc3ccc4O)[C@H](O)c3ccc(c(Cl)c3)Oc3cc2cc(c3O[C@@H]2O[C@H](CO)[C@@H](O)[C@H](O)[C@H]2O[C@H]2C[C@](C)(N)[C@H](O)[C@H](C)O2)Oc2ccc(cc2Cl)[C@H]1O [vancomycin]
Disc 30 μg
  resistance/sensitivity of culture A80509: sensitive

## gentamicin
Disc 10 μg
  resistance/sensitivity of culture A80509: sensitive

## neomycin
Disc 30 μg
  resistance/sensitivity of culture A80509: sensitive
